Laboratory results reported in ChEMBL document CHEMBL1201862, “PubChem BioAssay data set” (2004).
Counter-ions that a name gives are not always drawn.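 Step 1: Grow cells in 96-well plates. Step 2: Expose to compound for 48 hours at 5 concentrations. Step 3: Interpolate endpoints linearly; if unreached, use highest concentration. Here, GI50 denotes the concentration required for 50% inhibition of growth.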 Calls of active or inactive are those of the source. No stated cut-off is given here; in the data, active = GI50 up to about 1.1 µM and inactive = higher.

Tests used:
Test in all cases: inhibition of tumour cell growth, NCI panel, 48 h
[1] = test system: 786-0
[2] = test system: A498
[3] = test system: A549
[4] = test system: ACHN
[5] = test system: CAKI-1
[6] = test system: CCRF-CEM
[7] = test system: COLO 205
[8] = test system: DLD-1
[9] = test system: DMS-114
[10] = test system: DMS-273
[11] = test system: EKVX
[12] = test system: HCC 2998
[13] = test system: HCT-116
[14] = test system: HCT-15
[15] = test system: HL-60
[16] = test system: HOP-18
[17] = test system: HOP-62
[18] = test system: HOP-92
[19] = test system: HT-29
[20] = test system: IGROV-1
[21] = test system: K562
[22] = test system: KM-20L2
[23] = test system: KM12
[24] = test system: LOX IMVI
[25] = test system: LXFL 529
[26] = test system: M14
[27] = test system: M19-MEL
[28] = test system: MOLT-4
[29] = test system: Malme-3M
[30] = test system: NCI-H226
[31] = test system: NCI-H23
[32] = test system: NCI-H460
[33] = test system: NCI-H522
[34] = test system: OVCAR-3
[35] = test system: OVCAR-4
[36] = test system: OVCAR-5
[37] = test system: OVCAR-8
[38] = test system: RXF 393
[39] = test system: SF-268
[40] = test system: SF-295
[41] = test system: SF-539
[42] = test system: SK-MEL-28
[43] = test system: SK-MEL-2
[44] = test system: SK-MEL-5
[45] = test system: SK-OV-3
[46] = test system: SN12C
[47] = test system: SNB-19
[48] = test system: SNB-75
[49] = test system: SNB-78
[50] = test system: SR
[51] = test system: SW-620
[52] = test system: TK-10
[53] = test system: U-251
[54] = test system: UACC-257
[55] = test system: UACC-62
[56] = test system: UO-31
[57] = test system: RPMI-8226
[58] = test system: XF498

Measured: GI50

CCOc1ccc(NC(=O)CCc2nnc(SC)o2)cc1
> 100 µM: [14]
inactive: [1] > 100 µM | [2] > 100 µM | [3] > 100 µM | [4] > 100 µM | [5] > 100 µM | [6] > 100 µM | [7] > 100 µM | [8] > 100 µM | [9] > 100 µM | [10] > 100 µM | [11] > 100 µM | [12] > 100 µM | [13] > 100 µM | [15] > 100 µM | [16] > 100 µM | [17] > 100 µM | [18] 82 µM | [19] > 100 µM | [20] > 100 µM | [21] > 100 µM | [22] > 100 µM | [23] > 100 µM | [24] > 100 µM | [25] > 100 µM | [26] > 100 µM | [27] > 100 µM | [28] > 100 µM | [29] > 100 µM | [30] > 100 µM | [31] > 100 µM | [32] > 100 µM | [33] > 100 µM | [34] > 100 µM | [35] > 100 µM | [36] > 100 µM | [37] > 100 µM | [38] > 100 µM | [39] > 100 µM | [40] > 100 µM | [41] > 100 µM | [42] > 100 µM | [43] > 100 µM | [44] > 100 µM | [45] > 100 µM | [46] > 100 µM | [47] > 100 µM | [48] > 100 µM | [49] > 100 µM | [50] > 100 µM | [51] > 100 µM | [52] > 100 µM | [53] > 100 µM | [54] > 100 µM | [55] > 100 µM | [56] > 100 µM

C/C(=N\O)C(CN1CCCCC1)C(c1ccccc1)c1c(O)c2ccccc2oc1=O (centres undefined)
inactive: [1] > 100 µM | [2] > 100 µM | [3] > 100 µM | [4] > 100 µM | [5] > 100 µM | [6] > 10 µM | [7] > 100 µM | [8] > 100 µM | [9] > 100 µM | [11] > 100 µM | [12] > 100 µM | [13] > 100 µM | [15] > 10 µM | [17] > 100 µM | [18] 62.1 µM | [19] > 100 µM | [20] > 100 µM | [21] > 10 µM | [22] > 100 µM | [24] > 100 µM | [25] > 100 µM | [26] > 100 µM | [27] > 100 µM | [29] > 100 µM | [30] > 100 µM | [31] > 100 µM | [33] > 100 µM | [34] > 100 µM | [35] > 100 µM | [36] > 100 µM | [37] > 100 µM | [57] > 100 µM | [38] > 100 µM | [39] > 100 µM | [40] 54.8 µM | [41] > 100 µM | [42] > 100 µM | [43] > 100 µM | [44] > 100 µM | [45] > 100 µM | [46] > 100 µM | [47] > 100 µM | [48] > 100 µM | [51] > 100 µM | [52] > 100 µM | [54] > 100 µM | [55] > 100 µM | [58] > 100 µM

O=C(/C=C/c1ccccc1Cl)c1cccc2ccccc12
inactive: [1] 5.15 µM | [2] 14.4 µM | [3] 16.7 µM | [4] 16.7 µM | [5] 12.5 µM | [6] 4.82 µM | [7] 19 µM | [8] 8.51 µM | [9] 4.46 µM | [10] 13.4 µM | [11] 12.8 µM | [12] 14.5 µM | [13] 3.71 µM | [15] 10.4 µM | [16] 16.1 µM | [17] 14.3 µM | [18] 20.3 µM | [19] 10.4 µM | [20] 15.3 µM | [21] 4.38 µM | [22] 7.06 µM | [23] 5.24 µM | [24] 11.4 µM | [25] 3.06 µM | [26] 16.3 µM | [27] 11 µM | [28] 2.16 µM | [29] 16.1 µM | [30] 27.7 µM | [31] 12.6 µM | [32] 2.82 µM | [33] 6.65 µM | [34] 4.4 µM | [35] 4.81 µM | [36] 13.6 µM | [37] 1.97 µM | [57] 17.2 µM | [38] 14 µM | [39] 12.9 µM | [40] 12.5 µM | [41] 10.8 µM | [42] 13.7 µM | [43] 18.4 µM | [44] 19.4 µM | [45] 18.9 µM | [46] 48.6 µM | [47] 4.69 µM | [48] 6.97 µM | [49] 20.3 µM | [50] 2.52 µM | [51] 1.88 µM | [52] 15.8 µM | [53] 2.66 µM | [54] 18 µM | [55] 15.2 µM | [56] 9.2 µM
3.75 µM: [14]

Cc1cc(/C=C/c2cc[n+](C)c3ccccc23)c(O)c2ncccc12
inactive: [2] 4.19 µM | [3] 2.07 µM | [4] 4.22 µM | [5] 10.1 µM | [7] 5.68 µM | [8] 3.32 µM | [11] 3.28 µM | [16] 1.36 µM | [17] 1.87 µM | [18] 2.99 µM | [19] 3.76 µM | [20] 1.93 µM | [21] 2.46 µM | [22] 5.68 µM | [23] 2.19 µM | [24] 1.35 µM | [26] 1.44 µM | [27] 1.42 µM | [29] 2.8 µM | [30] 1.87 µM | [31] 1.7 µM | [33] 1.77 µM | [35] 7.94 µM | [36] 3.27 µM | [38] 2.38 µM | [42] 2.16 µM | [43] 2.67 µM | [45] 2.4 µM | [47] 4.55 µM | [48] 5.16 µM | [49] 4.63 µM | [52] 4.28 µM | [53] 1.23 µM | [54] 2.97 µM | [55] 1.99 µM | [56] 6.67 µM
4.65 µM: [14]
active: [1] 0.916 µM | [6] 0.181 µM | [9] 0.214 µM | [10] 0.558 µM | [12] 1.06 µM | [13] 0.966 µM | [15] 0.625 µM | [25] 0.156 µM | [28] 0.646 µM | [32] 0.597 µM | [34] 0.288 µM | [37] 0.411 µM | [57] 0.71 µM | [39] 0.973 µM | [40] 0.991 µM | [41] 0.426 µM | [44] 1.02 µM | [46] 1.09 µM | [50] 0.379 µM | [51] 0.619 µM

COc1ccc(CNc2cc(OC)cc(OC)c2)cc1
inactive: [1] > 52.2 µM | [3] > 100 µM | [4] > 100 µM | [9] 49 µM | [11] > 76.6 µM | [12] > 100 µM | [15] > 46.5 µM | [18] 65.5 µM | [21] 22.4 µM | [23] 84.3 µM | [25] 85.7 µM | [27] > 100 µM | [28] > 81.8 µM | [29] > 72.8 µM | [31] > 80.2 µM | [33] 35.8 µM | [35] 77.1 µM | [37] > 69.8 µM | [57] 58.9 µM | [38] > 68.4 µM | [39] > 62.1 µM | [42] 44.4 µM | [43] > 85.7 µM | [44] 60.5 µM | [45] > 80 µM | [48] > 42 µM | [49] 38.1 µM | [52] > 100 µM | [54] > 91.8 µM | [55] 87.7 µM | [56] 49.2 µM | [58] > 100 µM

COc1ccc2cc3[n+](cc2c1OC)CCc1cc2c(cc1-3)OCO2 [BERBERINE SULFATE]
inactive: [1] 51.5 µM | [2] > 100 µM | [6] 10.5 µM | [9] 4.33 µM | [10] 17.2 µM | [15] 14 µM | [18] 23.6 µM | [19] 32.6 µM | [20] 36 µM | [21] 14.1 µM | [22] 30.8 µM | [23] 4.88 µM | [24] 43.1 µM | [25] 4.37 µM | [26] 32.5 µM | [27] 7.6 µM | [29] 9.62 µM | [31] 8.34 µM | [32] 17.9 µM | [36] > 91.8 µM | [37] 18.1 µM | [39] 6.15 µM | [41] 33.8 µM | [42] 19.3 µM | [43] 15.5 µM | [44] 5.07 µM | [45] > 80.9 µM | [47] 8.13 µM | [48] 27.5 µM | [49] 34.4 µM | [51] 30.1 µM | [52] > 100 µM | [55] 17.8 µM | [58] 14 µM
